In ChEMBL document CHEMBL1201862, “PubChem BioAssay data set” (2004):
Calls of active or inactive are those of the source. Cut-off read from the data, not from the text of the source: active = IC50 of 20 µM or less and inactive = more.

What was measured:
Assay type in all cases: functional
Conditions in all cases: read-out: IC50_Mean
[1] = target: T1, Small ubiquitin-related modifier 1 (Homo sapiens, UniProt P63165); test: inhibitors of SUMO1 partner interactions, dose response, biochemical, FRET (AID 624383)
[2] = target: T1, Small ubiquitin-related modifier 1; test: inhibitors of SUMO1 peptide binding, dose response, biochemical, fluorescence polarization, uHTS hits (AID 624382)
[3] = target: T2, Sentrin-specific protease 1 (Homo sapiens, UniProt Q9P0U3); test: potency of human SENP1 inhibitors, dose response, biochemical, kinetic FRET (AID 651697)
T2 sequence (Q9P0U3 whole entry): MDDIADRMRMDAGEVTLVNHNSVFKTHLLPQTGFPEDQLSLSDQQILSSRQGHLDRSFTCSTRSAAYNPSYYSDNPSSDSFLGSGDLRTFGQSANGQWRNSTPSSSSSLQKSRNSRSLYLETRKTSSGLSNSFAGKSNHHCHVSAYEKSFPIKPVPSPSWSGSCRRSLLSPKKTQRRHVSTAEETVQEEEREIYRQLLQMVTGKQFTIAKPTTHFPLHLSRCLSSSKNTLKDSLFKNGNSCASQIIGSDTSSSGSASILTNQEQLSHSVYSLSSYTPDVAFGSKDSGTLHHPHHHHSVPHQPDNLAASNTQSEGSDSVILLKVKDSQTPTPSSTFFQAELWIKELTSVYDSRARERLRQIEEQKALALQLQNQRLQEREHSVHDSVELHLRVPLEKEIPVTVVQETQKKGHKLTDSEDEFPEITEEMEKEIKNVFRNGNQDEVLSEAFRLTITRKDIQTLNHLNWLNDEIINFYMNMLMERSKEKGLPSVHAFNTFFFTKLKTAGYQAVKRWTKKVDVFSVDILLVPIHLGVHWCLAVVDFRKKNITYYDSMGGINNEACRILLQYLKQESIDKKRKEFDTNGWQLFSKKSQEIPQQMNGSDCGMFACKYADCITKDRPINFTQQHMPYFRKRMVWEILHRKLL

[4] = target: T2, Sentrin-specific protease 1; test: Dose response confirmation of small molecule inhibitors of the catalytic domain of the SUMO protease, SENP1 in a FRET assay.

T1 sequence (P63165 whole entry): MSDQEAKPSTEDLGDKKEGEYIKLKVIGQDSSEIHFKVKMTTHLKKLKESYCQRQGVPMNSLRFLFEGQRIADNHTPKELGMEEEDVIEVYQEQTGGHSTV

Row | Compound | IC50 [1] | IC50 [2] | IC50 [3] | IC50 [4]
1 | CC(=O)c1ccc(OCCCC(=O)OCC(=O)Nc2ccc3[nH]c(O)nc3c2)cc1 | 16.9 µM (active) | > 66.6 µM (inactive) |  | 
2 | Nc1ccc2c(c1)C(=O)N(CCCC(=O)O)C2=O |  |  | 13.1 µM (active) | 19 µM (active)
